Test results published in patent US11773063B1, “Pharmaceutically acceptable salts and compositions thereof” (priority 2022, dated 2023).
Counter-ions that a name gives are not always drawn.

Columns and labels:
[1] = Polymorphism screen of hydrochloride and benzoate salts: thermal cycling, evaporation, antisolvent addition, cooling (XRPD); format: physicochemical; conditions: for 3-day Observations / XRPD Result: hydrochloride salt, three days; for 3-day Observations: thermally cycled between ambient and 40° C., -17 Forma; for 3-day Observations / Initial Observations / XRPD Result: solvent per experiment: -01 1,4-Dioxane, -02 1-Propanol, -03 2-Butanol, -05 2-Methyltetrahydrofuran, -06 2-Propanol, -07 Acetone, -08 Acetonitrile, -09 Anisole, -10 Chlorobenzene, -11 Ethanol, -12 Ethyl acetate, -13 Isopropyl acetate, -14 Methanol, -15 Propyl acetate, -16 Methylethyl ketone; for 3-day Observations / Initial Observations: -04 2-Ethoxyethanol; for Initial Observations: thermal cycle of lyophilised hydrochloride salt (~40 mg), solvent added, -17 Formamide; for XRPD Result: solid isolated after thermal cycle between ambient and 40° C., -20 iso-Prop
Protocol: Twenty five of the lyophilised samples were treated with solvent and thermally cycled between ambient and 40° C. with four hours spent under each condition. After three days and solids were isolated by centrifuge filtration and analysed by XRPD.
(§1) Twelve samples of the lyophilised material were treated with a minimal volume (ca 0.5 ml) of warm solvent, syringe filtered through a 0.22 µm filter and added to a clean HPLC vial and allowed to evaporate at RT. The solvents used and XRPD results following evaporation are detailed in the Table below:
as §1, with “micrometre” for “µm”
For antisolvent additions thirteen samples of the lyophilised material were dissolved in a small amount of hot solvent (^˜0.5 ml). […] A large excess of antisolvent was then added, the vials sealed. After storage at RT overnight, and samples where no solid had been produced were first cooled to 4° C. for ˜24 hrs, and again if no solid was produced, they were cooled to −18° C. Any solids were isolated by centrifuge filtration and analysed by XRPD.
For the cooling experiments twelve samples of the lyophilised material were dissolved in a small amount of hot solvent (^˜[…]) and syringe filtered through a 0.22 μm filter into a clean HPLC vial. Samples were allowed to cool to RT, and if no solid was produced to 4° C. and then to −18° C. Solids were isolated by centrifuge filtration and analysed by XRPD.

[2] = Thermo-Gravimetric Analysis (TGA), thermal stability; conditions: 10° C./min; for thermal stability up to (TGA): nitrogen
Protocol: Thermo—Gravimetric Analysis (TGA)
TGA thermograms were obtained with a TA Instrument Discovery 550 in Al pans. The heating rate used was 10° C./min linear ramp from 25 to 400° C. with a nitrogen purging at a rate of 60 ml/min. TGA thermograms were analysed using TRIOS software.

[3] = Dynamic Vapor Sorption (DVS), salt screen and scale-up salts; format: physicochemical; conditions: 25° C.
Protocol: Dynamic Vapor Sorption (DVS)
DVS analyses were performed on TA Instrument DVS Q5000. Samples were added to a pre-tared metallised quartz crucible and run at 25° C. from 40% RH to 90% RH, down to zero and back to 40%. This cycle was repeated in increments of 10% RH.

[4] = listed as DJP2202-007-14, hydrochloride

Compound	3-day Observations [1]	Initial Observations [1]	XRPD Result [1]	also measured
COc1ccc2[nH]cc(CCN(C)C)c2c1.Cl [DJP2202-007-25]	clear solution	dissolved		
COc1ccc2[nH]cc(CCN(C)C)c2c1.Cl [DJP2202-007-21]	few crystals	no change	Pattern 1	
COc1ccc2[nH]cc(CCN(C)C)c2c1.Cl [DJP2202-007-15]		no change	Pattern 1	
COc1ccc2[nH]cc(CCN(C)C)c2c1.Cl [DJP2202-007-13]	white solid	no change	Pattern 1	
COc1ccc2[nH]cc(CCN(C)C)c2c1.Cl [DJP2202-007-03]	few crystals	no change	Pattern 1	
COc1ccc2[nH]cc(CCN(C)C)c2c1.Cl [DJP2202-007-12]	white solid	no change	Pattern 1	
COc1ccc2[nH]cc(CCN(C)C)c2c1.Cl [DJP2202-007-08]		no change	Pattern 1	
COc1ccc2[nH]cc(CCN(C)C)c2c1.Cl [DJP2202-007-11]	white solid	no change	Pattern 1	
COc1ccc2[nH]cc(CCN(C)C)c2c1.Cl [DJP2202-007-04]	clear solution	dissolved		
COc1ccc2[nH]cc(CCN(C)C)c2c1.Cl [DJP2202-007-10]	white solid	no change	Pattern 1	
COc1ccc2[nH]cc(CCN(C)C)c2c1.Cl [Hydrochloride pattern 3, 5-MeO-DMT hydrochloride]				XRPD Result [1, 4]: Pattern 3; 3-day Observations [1, 4]: clear solution; Initial Observations [1, 4]: dissolved; start of decomposition / complete mass loss (TGA) ([2]; hydrochloride): around 260 °C
COc1ccc2[nH]cc(CCN(C)C)c2c1.Cl [DJP2202-007-24]	clear solution	dissolved		
COc1ccc2[nH]cc(CCN(C)C)c2c1.Cl [DJP2202-007-20]	few crystals	no change	Pattern 1	
COc1ccc2[nH]cc(CCN(C)C)c2c1.Cl [DJP2202-007-22]	few crystals	no change	Pattern 1	
COc1ccc2[nH]cc(CCN(C)C)c2c1.Cl [hydrochloride salt, 5-MeO-DMT hydrochloride]				XRPD Results ([1]; evaporation at RT of lyophilised hydrochloride salt from 1-PrOH (DJP2202-011-02)): Pattern 1; XRPD Results ([1]; evaporation at RT of lyophilised hydrochloride salt from EtOH (DJP2202-011-05)): Pattern 1; XRPD Results ([1]; evaporation at RT of lyophilised hydrochloride salt from IPA (DJP2202-011-06)): Pattern 1; XRPD Results ([1]; evaporation at RT of lyophilised hydrochloride salt from MEK (DJP2202-011-11)): Pattern 1; XRPD Results ([1]; evaporation at RT of lyophilised hydrochloride salt from MeCN (DJP2202-011-12)): Oil; thermal stability up to (TGA) [2]: ~235 °C
COc1ccc2[nH]cc(CCN(C)C)c2c1.Cl [DJP2202-007-16]	white crystals	no change	Pattern 2	

Compound	3-day Observations [1]	Initial Observations [1]	XRPD Result [1]	also measured
COc1ccc2[nH]cc(CCN(C)C)c2c1.Cl [DJP2202-007-19]	clear solution	no change		
COc1ccc2[nH]cc(CCN(C)C)c2c1 [Saccharinate salt, 5-MeO-DMT saccharinate]				thermal stability up to (TGA) [2]: 200 °C
COc1ccc2[nH]cc(CCN(C)C)c2c1.O=C(O)c1ccccc1 [benzoate salt pattern 3, 5-MeO-DMT benzoate]				start of decomposition / complete mass loss (TGA) [2]: approximately 190 °C
COc1ccc2[nH]cc(CCN(C)C)c2c1.Cl [DJP2202-007-18]	clear solution	dissolved		
COc1ccc2[nH]cc(CCN(C)C)c2c1.Cl [DJP2202-007-07]	few crystals	no change	Pattern 1	
COc1ccc2[nH]cc(CCN(C)C)c2c1 [Ketoglutarate salt, 5-MeO-DMT ketoglutarate]				water uptake at 40% RH ([3]; first sorption isotherm): 0.13 % w/w; deliquescence during DVS ([3]; high RH): deliquesce at high RH
COc1ccc2[nH]cc(CCN(C)C)c2c1.Cl [DJP2202-007-17]	few crystals	dissolved		
COc1ccc2[nH]cc(CCN(C)C)c2c1.Cl [DJP2202-007-06]	few crystals	no change	Pattern 1	
COc1ccc2[nH]cc(CCN(C)C)c2c1.O=C(O)c1ccccc1 [benzoate salt pattern 4, 5-MeO-DMT benzoate]				start of decomposition / complete mass loss (TGA) [2]: approximately 190 °C; thermal stability up to (TGA) [2]: approximately 190 °C
COc1ccc2[nH]cc(CCN(C)C)c2c1.Cl [DJP2202-007-23]	clear solution	dissolved		
COc1ccc2[nH]cc(CCN(C)C)c2c1.Cl [DJP2202-007-09]		no change	Pattern 1	
COc1ccc2[nH]cc(CCN(C)C)c2c1.Cl [DJP2202-007-02]	few crystals	no change	Pattern 1	
COc1ccc2[nH]cc(CCN(C)C)c2c1.Cl [DJP2202-007-05]	few crystals	no change	Pattern 1	
COc1ccc2[nH]cc(CCN(C)C)c2c1 [free base, 5-methoxy-N,N-dimethyltryptamine]				thermal stability up to (TGA) [2]: 150 °C
COc1ccc2[nH]cc(CCN(C)C)c2c1.O=C(O)c1ccccc1 [benzoate salt pattern 2, 5-MeO-DMT benzoate]				thermal stability up to (TGA) [2]: ~170 °C
